Reference: ChEMBL document CHEMBL4706643 (J Med Chem, 2021)

System: Hepatitis B virus
Assay: Antiviral activity against HBV infected in human HepG2-NTCP cells assessed as reduction in HBeAg secretion cells inoculated with virus for 4 hrs at room temperature and 37 degree C for 24 hrs followed inoculum changed with PMM medium for every 2 days until day 5 post infection by ELISA
Assay type: functional, organism-based

Row | Structure (SMILES) | IC50
1 | CC[C@@H]1NC(=O)[C@H]([C@@H]2O[C@H](Sc3ccc(OC)cc3)C[C@H]2C)N(C)C(=O)[C@H](C(C)C)N(C)C(=O)[C@H](CC(C)C)N(C)C(=O)[C@H](CC(C)C)N(C)C(=O)[C@@H](C)NC(=O)[C@H](C)NC(=O)[C@H](CC(C)C)N(C)C(=O)[C@H](C(C)C)NC(=O)[C@H](CC(C)C)N(C)C(=O)CN(C)C1=O | 1700 nM
2 | C=C(C)C1C[C@@H](C)[C@H]([C@H]2C(=O)N[C@@H](CC)C(=O)N(C)CC(=O)N(C)[C@@H](CC(C)C)C(=O)N[C@@H](C(C)C)C(=O)N(C)[C@@H](CC(C)C)C(=O)N[C@@H](C)C(=O)N[C@H](C)C(=O)N(C)[C@@H](CC(C)C)C(=O)N(C)[C@@H](CC(C)C)C(=O)N(C)[C@@H](C(C)C)C(=O)N2C)O1 (stereo partly drawn) | > 10000 nM
3 | CCCOc1cccc(S[C@H]2C[C@@H](C)[C@H]([C@H]3C(=O)N[C@@H](CC)C(=O)N(C)CC(=O)N(C)[C@@H](CC(C)C)C(=O)N[C@@H](C(C)C)C(=O)N(C)[C@@H](CC(C)C)C(=O)N[C@@H](C)C(=O)N[C@H](C)C(=O)N(C)[C@@H](CC(C)C)C(=O)N(C)[C@@H](CC(C)C)C(=O)N(C)[C@@H](C(C)C)C(=O)N3C)O2)c1 | 223 nM
4 | CC[C@@H]1NC(=O)[C@H]([C@@H]2O[C@@H](Sc3cc(OC)cc(OCc4ccc(F)cc4)c3)C[C@H]2C)N(C)C(=O)[C@H](C(C)C)N(C)C(=O)[C@H](CC(C)C)N(C)C(=O)[C@H](CC(C)C)N(C)C(=O)[C@@H](C)NC(=O)[C@H](C)NC(=O)[C@H](CC(C)C)N(C)C(=O)[C@H](C(C)C)NC(=O)[C@H](CC(C)C)N(C)C(=O)CN(C)C1=O | 216 nM
5 | CC[C@@H]1NC(=O)[C@H]([C@@H]2O[C@@H](Sc3ccc(OC)cc3)C[C@H]2C)N(C)C(=O)[C@H](C(C)C)N(C)C(=O)[C@H](CC(C)C)N(C)C(=O)[C@H](CC(C)C)N(C)C(=O)[C@@H](C)NC(=O)[C@H](C)NC(=O)[C@H](CC(C)C)N(C)C(=O)[C@H](C(C)C)NC(=O)[C@H](CC(C)C)N(C)C(=O)CN(C)C1=O | 990 nM
6 | CC[C@@H]1NC(=O)[C@H]([C@@H]2O[C@@H](Sc3cccc(NC)c3)C[C@H]2C)N(C)C(=O)[C@H](C(C)C)N(C)C(=O)[C@H](CC(C)C)N(C)C(=O)[C@H](CC(C)C)N(C)C(=O)[C@@H](C)NC(=O)[C@H](C)NC(=O)[C@H](CC(C)C)N(C)C(=O)[C@H](C(C)C)NC(=O)[C@H](CC(C)C)N(C)C(=O)CN(C)C1=O | 1200 nM
7 | CC[C@@H]1NC(=O)[C@H]([C@@H]2O[C@@H](Sc3ccc(OCc4ccccc4)cc3)C[C@H]2C)N(C)C(=O)[C@H](C(C)C)N(C)C(=O)[C@H](CC(C)C)N(C)C(=O)[C@H](CC(C)C)N(C)C(=O)[C@@H](C)NC(=O)[C@H](C)NC(=O)[C@H](CC(C)C)N(C)C(=O)[C@H](C(C)C)NC(=O)[C@H](CC(C)C)N(C)C(=O)CN(C)C1=O | 256 nM
8 | CC[C@@H]1NC(=O)[C@H]([C@@H]2O[C@@H](Sc3nccc(C(F)(F)F)n3)C[C@H]2C)N(C)C(=O)[C@H](C(C)C)N(C)C(=O)[C@H](CC(C)C)N(C)C(=O)[C@H](CC(C)C)N(C)C(=O)[C@@H](C)NC(=O)[C@H](C)NC(=O)[C@H](CC(C)C)N(C)C(=O)[C@H](C(C)C)NC(=O)[C@H](CC(C)C)N(C)C(=O)CN(C)C1=O | 4960 nM
9 | CC[C@@H]1NC(=O)[C@H]([C@@H]2O[C@@H](Sc3cccc(OCC4CCOCC4)c3)C[C@H]2C)N(C)C(=O)[C@H](C(C)C)N(C)C(=O)[C@H](CC(C)C)N(C)C(=O)[C@H](CC(C)C)N(C)C(=O)[C@@H](C)NC(=O)[C@H](C)NC(=O)[C@H](CC(C)C)N(C)C(=O)[C@H](C(C)C)NC(=O)[C@H](CC(C)C)N(C)C(=O)CN(C)C1=O | 249 nM
10 | CC[C@@H]1NC(=O)[C@H]([C@@H]2O[C@@H](Sc3cccc(N(C)CC)c3)C[C@H]2C)N(C)C(=O)[C@H](C(C)C)N(C)C(=O)[C@H](CC(C)C)N(C)C(=O)[C@H](CC(C)C)N(C)C(=O)[C@@H](C)NC(=O)[C@H](C)NC(=O)[C@H](CC(C)C)N(C)C(=O)[C@H](C(C)C)NC(=O)[C@H](CC(C)C)N(C)C(=O)CN(C)C1=O | 206 nM
11 | CC[C@@H]1NC(=O)[C@H]([C@@H]2O[C@@H](Oc3cccc(OCc4ccccc4)c3)C[C@H]2C)N(C)C(=O)[C@H](C(C)C)N(C)C(=O)[C@H](CC(C)C)N(C)C(=O)[C@H](CC(C)C)N(C)C(=O)[C@@H](C)NC(=O)[C@H](C)NC(=O)[C@H](CC(C)C)N(C)C(=O)[C@H](C(C)C)NC(=O)[C@H](CC(C)C)N(C)C(=O)CN(C)C1=O | 344 nM
12 | CC[C@@H]1NC(=O)[C@H]([C@@H]2OC(C(C)=O)C[C@H]2C)N(C)C(=O)[C@H](C(C)C)N(C)C(=O)[C@H](CC(C)C)N(C)C(=O)[C@H](CC(C)C)N(C)C(=O)[C@@H](C)NC(=O)[C@H](C)NC(=O)[C@H](CC(C)C)N(C)C(=O)[C@H](C(C)C)NC(=O)[C@H](CC(C)C)N(C)C(=O)CN(C)C1=O (stereo partly drawn) | > 10000 nM
13 | CC[C@@H]1NC(=O)[C@H]([C@@H]2O[C@@H](Sc3ccc(OC)c(OC)c3)C[C@H]2C)N(C)C(=O)[C@H](C(C)C)N(C)C(=O)[C@H](CC(C)C)N(C)C(=O)[C@H](CC(C)C)N(C)C(=O)[C@@H](C)NC(=O)[C@H](C)NC(=O)[C@H](CC(C)C)N(C)C(=O)[C@H](C(C)C)NC(=O)[C@H](CC(C)C)N(C)C(=O)CN(C)C1=O | 346 nM
14 | CC[C@@H]1NC(=O)[C@H]([C@@H]2O[C@@H](Sc3ccc(C)cc3)C[C@H]2C)N(C)C(=O)[C@H](C(C)C)N(C)C(=O)[C@H](CC(C)C)N(C)C(=O)[C@H](CC(C)C)N(C)C(=O)[C@@H](C)NC(=O)[C@H](C)NC(=O)[C@H](CC(C)C)N(C)C(=O)[C@H](C(C)C)NC(=O)[C@H](CC(C)C)N(C)C(=O)CN(C)C1=O | 281 nM
15 | C/C=C/C[C@@H](C)[C@@H](O)[C@H]1C(=O)N[C@@H](CC)C(=O)N(C)CC(=O)N(C)[C@@H](CC(C)C)C(=O)N[C@@H](C(C)C)C(=O)N(C)[C@@H](CC(C)C)C(=O)N[C@@H](C)C(=O)N[C@H](C)C(=O)N(C)[C@@H](CC(C)C)C(=O)N(C)[C@@H](CC(C)C)C(=O)N(C)[C@@H](C(C)C)C(=O)N1C [CYCLOSPORINE] | 5780 nM
16 | CC[C@@H]1NC(=O)[C@H]([C@@H]2OC(OCCC(=O)OC)C[C@H]2C)N(C)C(=O)[C@H](C(C)C)N(C)C(=O)[C@H](CC(C)C)N(C)C(=O)[C@H](CC(C)C)N(C)C(=O)[C@@H](C)NC(=O)[C@H](C)NC(=O)[C@H](CC(C)C)N(C)C(=O)[C@H](C(C)C)NC(=O)[C@H](CC(C)C)N(C)C(=O)CN(C)C1=O (stereo partly drawn) | 9260 nM
17 | CC[C@@H]1NC(=O)[C@H]([C@@H]2O[C@@H](Sc3cccc(OCC4CC4)c3)C[C@H]2C)N(C)C(=O)[C@H](C(C)C)N(C)C(=O)[C@H](CC(C)C)N(C)C(=O)[C@H](CC(C)C)N(C)C(=O)[C@@H](C)NC(=O)[C@H](C)NC(=O)[C@H](CC(C)C)N(C)C(=O)[C@H](C(C)C)NC(=O)[C@H](CC(C)C)N(C)C(=O)CN(C)C1=O | 365 nM
18 | CC[C@@H]1NC(=O)[C@H]([C@@H]2O[C@@H](Sc3cccc(OCc4ccncc4)c3)C[C@H]2C)N(C)C(=O)[C@H](C(C)C)N(C)C(=O)[C@H](CC(C)C)N(C)C(=O)[C@H](CC(C)C)N(C)C(=O)[C@@H](C)NC(=O)[C@H](C)NC(=O)[C@H](CC(C)C)N(C)C(=O)[C@H](C(C)C)NC(=O)[C@H](CC(C)C)N(C)C(=O)CN(C)C1=O | 382 nM
